{
  "source": "patent US20120258938A1",
  "about": "“Enzymatic Production or Chemical Synthesis and Uses for 5,7-Dienes and UVB Conversion Products Thereof” (priority 2008, published 2012)",
  "key": {"[1]": {"system": "AbC1 hamster melanoma cells", "test": "Proliferation (DNA synthesis) of AbC1", "format": "cell-based", "conditions": "AbC1, 72 h", "protocol": "To measure DNA synthesis, keratinocytes, melanoma or prostate cancer cells were plated in 96-well plates. After overnight incubation tested compounds were added to the medium to achieve final concentrations 10^−7-10^−10 [M]. 100 μl of medium per well containing vitamin D3 compound was added to the cells. After 36 hours of incubation [3H]-thymidine (specific activity 88.0 Ci/mmol; Amersham Biosciences, Picataway, N.Y., USA) was added at 1 μCi/mL medium. After 12 hours, media were discarded, cells detached with trypsin and harvested on a glass fiber filter (Packard, Meriden, Calif., USA). 3H-radioactivity was measured with a beta counter (Direct Beta-Counter Matrix 9600; Packard).\nHaCaT keratinocytes were an incubated for 48 h (FIG. 48A) or 72 h (FIG. 48B) in the presence of graded concentrations of 20(OH)D2 and/or 1,25(OH)2D3. […] Data are shown as mean±SD (n 3); *, p<0.05; **, p<0.01."}, "NFκB": {"system": "NFκB", "test": "Electrophoretic mobility shift assay for NF-κB activation", "format": "cell-based, human", "conditions": "HaCaT nuclear extracts, 10^−7 M", "source_text": "Electrophoretic mobility shift assay (EMSA) was done using the Odyssey Infrared Imaging System (LI-COR, Inc., Lincoln, Nebr.). The synthetic IRDye-labeled oligonucleotide (LI-COR) used for the DNA mobility shift assay contained the wild-type VDRE sequence sp1 promoter and part of INVOLUCRIN sequence contained the sequence: 5′-GCGGGAGGCAGATCTGGCAGATACTGA-3′ (SEQ ID NO: 3). Oligo was end labeled with infrared dye 700. Unlabeled oligo contained the same sequence. The DNA binding reaction was set up using 2.5 μg of the nuclear extract mixed with oligonucleotide and gel shift binding buffer consisting of: 2.5 mmol/L DTT, 0.25% Tween-20 and 0.25 mg/ml poly(dl):poly(dC) according to the LI-COR protocol. The reaction was incubated at room temperature in the dark for 30 minutes. For NF-κB activation p65 antibody was added to the 1 sample and incubated for the 30 min. Orange loading dye (2 μl of 10×) was added to each sample and loaded on the prerun 5% polyacrylamide gel and ran at 80V for 1 hour. The gel was scanned using Odyssey Infrared Imaging System.\nHaCaT keratinocytes were treated with 20,23-dihydroxycholecalciferol for indicated time: 0 h, 30 min, 1 h, 4 h, 16 h and 24 h, at the concentration of 10^−7 [M]. […]"}, "PC-3": {"system": "PC-3", "test": "Flow cytometry cell cycle and subG1, PC-3", "format": "cell-based, human", "conditions": "PC-3, 24 h", "protocol": "MD-MBA-231, MG-63, PC-3, and WM164 cells were seeded into Petri dishes and then incubated for 24 h with 20-hydroxycholecalciferol in DMEM medium containing 5% FBS. Then cells were fixed, DNA stained and samples read with flow cytometer as described (7). Data was analyzed with Cell Quest (BD Biosciences). Cell cycle phases were assessed in viable cell populations and subG1 contents were calculated within whole cell population."}, "[2]": {"system": "human osteosarcoma cell line MG-63", "test": "Proliferation of MG-63 osteosarcoma cells", "format": "cell-based", "protocol": "(§1) Cells were seeded in 96-well plate and incubated with 20-hydroxycholecalciferol in DMEM medium containing 5% FBS for 48 h (FIG. 25A) or 72 h (FIG. 25C) or for 24 h after a 12 h synchronization in serum free medium (FIG. 25D). […] was added for a final 18 h (FIGS. 25A, 25D) or 12 h (FIG. 25C) of incubation or cells were assessed with sulforhodamine assay (FIG. 25C). Data is shown as mean±SEM (n=5; FIG. 24C) or mean±SEM (n=6; FIGS. 24A, 24C, 24D) and was analyzed using GraphPrism 4.0."}, "[3]": {"system": "human breast carcinoma cell line MD-MBA-231", "test": "Proliferation of MD-MBA-231 breast carcinoma cells", "format": "cell-based", "conditions": "MD-MBA-231, 48 h, [3H]-thymidine", "protocol": "as §1"}, "TNFα": {"system": "TNFα", "test": "LPS-induced TNFα production by PBMC", "format": "cell-based", "conditions": "normal human PBMC, LPS (10 pg/ml), 10^−8M"}, "rat CYP24": {"biological_target": "T1, rat CYP24 (Rattus norvegicus, UniProt Q09128)", "T1 sequence (Q09128 36-514)": "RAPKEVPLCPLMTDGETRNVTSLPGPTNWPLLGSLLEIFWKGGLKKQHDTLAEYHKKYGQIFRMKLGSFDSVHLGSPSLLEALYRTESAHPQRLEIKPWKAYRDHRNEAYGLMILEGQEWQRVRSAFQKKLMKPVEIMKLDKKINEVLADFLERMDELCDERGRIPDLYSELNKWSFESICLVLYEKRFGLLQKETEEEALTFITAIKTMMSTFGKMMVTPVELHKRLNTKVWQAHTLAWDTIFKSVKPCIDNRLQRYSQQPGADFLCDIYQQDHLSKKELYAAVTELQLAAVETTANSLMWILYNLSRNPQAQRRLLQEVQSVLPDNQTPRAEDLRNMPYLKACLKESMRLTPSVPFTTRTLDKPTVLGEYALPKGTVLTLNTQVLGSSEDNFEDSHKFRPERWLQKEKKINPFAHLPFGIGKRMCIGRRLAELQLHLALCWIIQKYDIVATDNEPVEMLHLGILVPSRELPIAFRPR", "test": "Metabolism by rat CYP24 in phospholipid vesicles", "protocol": "Samples (typically 0.25-1.0 mL) were incubated at 37° C., with shaking, then reactions terminated by the addition of 2.5 mL ice-cold dichloromethane and vortexing. After phase separation aided by centrifugation, the lower organic phase was retained and the upper aqueous phase was extracted twice more with 2.5 mL aliquots of dichloromethane. The dichloromethane was removed under nitrogen and the residual sample dissolved in solvent for HPLC analysis.\nTo test enzymatic metabolism of 20S(OH)D3 and 20R(OH)D3, the substrates were incorporated into phospholipid vesicles with the ratio of substrate to phospholipid being 0.025 mol/mol phospholipid. Vesicles were incubated with 2 μM bovine CYP11A1 or 0.06 μM human CYP27B1 for up to 10 min. To test enzymatic metabolism of 20(OH)D3 in CYP24, the substrate was incorporated into phospholipids vesicles with 0.15-0.5 μM CYP24. To test enzymatic metabolism of 20(OH)D3 in CYP27A1, purified CYP27A1 was preincubated with the vesicles for 6 min at 37° C. Adrenodoxin was added last to initiate the reaction. For kinetic experiments, the incubations were typically 0.5 mL and were carried out over the initial linear period of the reaction (10 min for vitamin D3 and cholesterol and 30 min for 20(OH)D3)."}, "VDRE": {"system": "VDRE", "test": "Electrophoretic mobility shift assay for VDR activation (VDRE probe)", "format": "cell-based, human", "conditions": "HaCaT nuclear extracts, 10 nM, 24 h"}},
  "data": [
    {"smiles": "C=C1/C(=C\\C=C2/CCC[C@]3(C)[C@@H]([C@H](C)CCCC(C)(C)O)CC[C@@H]23)C[C@@H](O)C[C@@H]1O", "note": "[1α,25-dihydroxycholecalciferol, (5Z,7E)-9,10-secocholesta-5,7,10(19)-triene-1α,3β,25-triol, reference compound]", "values": [
      {"measurement": "proliferation", "setting": "[1]", "value": "Dose dependent inhibition of the proliferation"}
    ]},
    {"smiles": "C=C1CC[C@H](O)C/C1=C/C=C1\\CCC[C@]2(C)[C@@H](C(C)(O)CC(O)CC(C)C)CC[C@@H]12", "note": "(stereo partly drawn) [20,23-dihydroxycholecalciferol, (5Z,7E)-9,10-secocholesta-5,7,10(19)-triene-3β,20,23-triol]", "values": [
      {"measurement": "NFκB DNA-binding activity (EMSA)", "setting": "NFκB", "value": "inhibited the NFκB binding activity"}
    ]},
    {"smiles": "C=C1CC[C@H](O)C/C1=C/C=C1\\CCC[C@@]2(C)[C@H]1CC[C@@H]2[C@@](C)(O)CCCC(C)C", "note": "[20(OH)D3, (5Z,7E)-9,10-secocholesta-5,7,10(19)-triene-3β,20-diol]", "values": [
      {"measurement": "G0/G1 of viable cells", "setting": "PC-3", "value": 24, "unit": "%"},
      {"measurement": "G2/M of viable cells", "setting": "PC-3", "value": 0},
      {"measurement": "S of viable cells", "setting": "PC-3", "value": 76, "unit": "%"},
      {"measurement": "Viable Cells", "setting": "PC-3", "value": 4},
      {"measurement": "subG1", "setting": "PC-3; whole cell population", "value": 96},
      {"measurement": "EC50", "setting": "[2]", "value": 570, "unit": "nM"},
      {"measurement": "EC50", "setting": "[3]", "value": 10, "unit": "nM"},
      {"measurement": "TNFα production", "setting": "TNFα", "value": "2609 ± 1961", "unit": "pg/mL"},
      {"measurement": "Km", "setting": "rat CYP24", "value": "0.028±0.007 mol substrate/mol phospholipid"},
      {"measurement": "kcat/Km", "setting": "rat CYP24", "value": "386 min^−1(mol substrate/mol phospholipid)^−1"},
      {"measurement": "kcat", "setting": "rat CYP24; phospholipid vesicles", "value": "10.8±0.8", "unit": "mol/min/mol CYP24"},
      {"measurement": "kcat/Km lower than for 1,25(OH)2D3", "setting": "rat CYP24; phospholipid vesicles", "value": 24, "unit": "fold"},
      {"measurement": "kcat/Km lower than that for 25(OH)D3", "setting": "rat CYP24; phospholipid vesicles", "value": 17, "unit": "fold"},
      {"measurement": "binding of protein complexes to VDRE probe", "setting": "VDRE", "value": "stimulated binding activity of protein complexes to VDRE probe"}
    ]}
  ]
}
